Laboratory results as given in PubChem BioAssay (NCI).
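Dose response: 5 concentrations. Exposure: 48 h. Format: 96-well plates. Endpoint: linear interpolation; highest concentration if not reached. GI50: concentration for 50% inhibition of growth. At the TGI there is no net growth.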

Legend:
Assay in all cases: growth of human tumour cells (NCI), 48 h
A498 renal = tested on: A498 renal
CAKI-1 renal = tested on: CAKI-1 renal
DU-145 prostate = tested on: DU-145 prostate
K-562 leukemia = tested on: K-562 leukemia
KM12 colon = tested on: KM12 colon
RPMI-8226 leukemia = tested on: RPMI-8226 leukemia
RXF 393 renal = tested on: RXF 393 renal
SNB-19 CNS = tested on: SNB-19 CNS

SMILES: CCCCCCCCn1ccc2cc(NC(=O)Cn3cc(CN4CCCC4)nn3)ccc21
- GI50 (A498 renal): 1.7 µM
- TGI (A498 renal): 3.35 µM
- GI50 (CAKI-1 renal): 1.76 µM
- TGI (CAKI-1 renal): 3.28 µM
- GI50 (DU-145 prostate): 3.12 µM
- TGI (DU-145 prostate): 9.61 µM
- GI50 (K-562 leukemia): 1.91 µM
- TGI (K-562 leukemia): 3.9 µM
- GI50 (KM12 colon): 1.95 µM
- TGI (KM12 colon): 3.98 µM
- GI50 (RPMI-8226 leukemia): 2.18 µM
- TGI (RPMI-8226 leukemia): 5.17 µM
- GI50 (RXF 393 renal): 1.6 µM
- TGI (RXF 393 renal): 3.37 µM
- GI50 (SNB-19 CNS): 1.73 µM
- TGI (SNB-19 CNS): 3.34 µM

SMILES: O=c1cc(-c2ccccc2)oc2cc(OC/C(=N/O)c3ccccc3)ccc12
- GI50 (CAKI-1 renal): 12.8 µM
- TGI (CAKI-1 renal): > 50 µM
- GI50 (DU-145 prostate): 25.1 µM
- TGI (DU-145 prostate): > 50 µM
- GI50 (K-562 leukemia): 36.5 µM
- TGI (K-562 leukemia): > 50 µM
- GI50 (KM12 colon): 13.2 µM
- TGI (KM12 colon): > 50 µM
- GI50 (RPMI-8226 leukemia): 6.69 µM
- TGI (RPMI-8226 leukemia): > 50 µM
- GI50 (RXF 393 renal): 16 µM
- TGI (RXF 393 renal): > 50 µM
- GI50 (SNB-19 CNS): 18.2 µM
- TGI (SNB-19 CNS): > 50 µM

SMILES: Cc1cc(Cl)cc2c1NC(=O)C2(O)CC(=O)c1ccco1 (stereo unspecified)
- TGI (A498 renal): > 100 µM
- TGI (CAKI-1 renal): > 100 µM
- TGI (DU-145 prostate): > 100 µM
- TGI (K-562 leukemia): 54.6 µM
- TGI (KM12 colon): > 100 µM
- TGI (RPMI-8226 leukemia): > 83.7 µM
- TGI (RXF 393 renal): > 100 µM
- TGI (SNB-19 CNS): > 100 µM

SMILES: COc1ccc(-c2nc(-c3nc4ccc(Cl)cc4[nH]3)c3ccccn23)cc1
- GI50 (A498 renal): 5.61 µM
- TGI (A498 renal): 29.2 µM
- GI50 (CAKI-1 renal): 2.09 µM
- TGI (CAKI-1 renal): 5.03 µM
- GI50 (DU-145 prostate): 3.27 µM
- TGI (DU-145 prostate): 11.1 µM
- GI50 (K-562 leukemia): 5.4 µM
- TGI (K-562 leukemia): 80.1 µM
- GI50 (KM12 colon): 7.68 µM
- TGI (KM12 colon): > 100 µM
- GI50 (RPMI-8226 leukemia): 3.55 µM
- TGI (RPMI-8226 leukemia): 58.3 µM
- GI50 (RXF 393 renal): 1.94 µM
- TGI (RXF 393 renal): 3.85 µM
- GI50 (SNB-19 CNS): 3.6 µM
- TGI (SNB-19 CNS): 20.7 µM

SMILES: COc1cc(Nc2nc3ccccc3nc2-c2cccs2)cc(OC)c1OC
- TGI (RPMI-8226 leukemia): > 100 µM
- TGI (RXF 393 renal): > 100 µM
- TGI (SNB-19 CNS): > 100 µM

SMILES: CCOC(=O)/C(C#N)=C/c1[nH]c(C(=O)OCc2ccccc2)c(C)c1C
- TGI (CAKI-1 renal): > 100 µM
- TGI (K-562 leukemia): > 100 µM
- TGI (KM12 colon): > 100 µM
- TGI (RPMI-8226 leukemia): > 100 µM
- TGI (RXF 393 renal): > 100 µM
- TGI (SNB-19 CNS): > 100 µM

SMILES: O=C(Nc1ccc(-c2nc(N3CCOCC3)c3cccn3n2)cc1)Nc1cccnc1
- GI50 (A498 renal): 0.0475 µM
- TGI (A498 renal): 0.328 µM
- GI50 (CAKI-1 renal): 0.185 µM
- TGI (CAKI-1 renal): 3.85 µM
- GI50 (DU-145 prostate): 0.212 µM
- TGI (DU-145 prostate): > 100 µM
- GI50 (K-562 leukemia): 0.195 µM
- TGI (K-562 leukemia): > 100 µM
- GI50 (KM12 colon): 0.162 µM
- TGI (KM12 colon): 16.7 µM
- GI50 (RPMI-8226 leukemia): 0.138 µM
- TGI (RPMI-8226 leukemia): 1.36 µM
- GI50 (RXF 393 renal): 0.0345 µM
- TGI (RXF 393 renal): 0.359 µM

SMILES: O=C(CC1(O)C(=O)Nc2ccccc21)c1ccncc1 (stereo unspecified)
- TGI (A498 renal): > 100 µM
- TGI (CAKI-1 renal): > 100 µM
- TGI (K-562 leukemia): > 100 µM
- TGI (RPMI-8226 leukemia): > 100 µM
- TGI (RXF 393 renal): > 100 µM
- TGI (SNB-19 CNS): > 100 µM

SMILES: O=C1c2ccccc2C(=O)N1CCc1ncc[nH]1
- TGI (CAKI-1 renal): > 100 µM
- TGI (DU-145 prostate): > 100 µM
- TGI (K-562 leukemia): > 100 µM
- TGI (KM12 colon): > 100 µM
- TGI (RPMI-8226 leukemia): > 100 µM
- TGI (SNB-19 CNS): > 100 µM

SMILES: Cc1c(C(=O)C/C(=N/NC(=O)C[N+](C)(C)C)C(=O)Nc2ccc(Cl)cc2)[n+](=O)c2ccccc2n1O
- TGI (A498 renal): > 100 µM
- TGI (CAKI-1 renal): > 100 µM
- TGI (K-562 leukemia): > 100 µM
- TGI (KM12 colon): > 100 µM
- TGI (RPMI-8226 leukemia): > 100 µM
- TGI (RXF 393 renal): > 100 µM
- TGI (SNB-19 CNS): > 100 µM

SMILES: C/C(CC(=O)Nc1cc(C)ccc1C)=N\NC(=O)c1ccncc1
- TGI (K-562 leukemia): > 100 µM
- TGI (KM12 colon): > 100 µM
- TGI (RPMI-8226 leukemia): > 100 µM
- TGI (RXF 393 renal): > 100 µM

SMILES: CCCC1N2CCCCC2[C@@H]2c3[nH]c4ccccc4c3CCN12 (stereo partly specified)
- TGI (A498 renal): > 100 µM
- TGI (CAKI-1 renal): > 100 µM
- TGI (K-562 leukemia): > 100 µM
- TGI (RPMI-8226 leukemia): > 100 µM
- TGI (RXF 393 renal): > 100 µM
- TGI (SNB-19 CNS): > 100 µM

SMILES: O=C(CCc1cc(-c2ccccc2)nc(=S)[nH]1)N(Cc1ccccc1)Cc1ccccc1
- TGI (A498 renal): > 100 µM
- TGI (CAKI-1 renal): > 100 µM
- TGI (K-562 leukemia): > 100 µM
- TGI (KM12 colon): > 100 µM
- TGI (RPMI-8226 leukemia): > 100 µM
- TGI (SNB-19 CNS): > 100 µM

SMILES: CC(=O)OCC1OC(NC(=S)N/N=C2\CC(c3ccccc3)Oc3ccccc32)C(OC(C)=O)C(OC(C)=O)C1OC(C)=O (stereo unspecified)
- TGI (A498 renal): > 100 µM
- TGI (CAKI-1 renal): > 100 µM
- TGI (K-562 leukemia): > 100 µM
- TGI (KM12 colon): > 100 µM
- TGI (RPMI-8226 leukemia): > 100 µM
- TGI (RXF 393 renal): > 100 µM
- TGI (SNB-19 CNS): > 100 µM

SMILES: COCCCNC(=O)C1C(=O)C(=O)N(CCCOC)C1=O (stereo unspecified)
- TGI (A498 renal): > 100 µM
- TGI (CAKI-1 renal): > 100 µM
- TGI (K-562 leukemia): > 100 µM
- TGI (RPMI-8226 leukemia): > 100 µM
- TGI (SNB-19 CNS): > 100 µM

SMILES: Cc1ccc(NC(=O)CC(=O)n2nc(C)c(N=Nc3ccccc3C(=O)O)c2C)cc1
- TGI (A498 renal): > 100 µM
- TGI (CAKI-1 renal): > 100 µM
- TGI (K-562 leukemia): > 100 µM
- TGI (KM12 colon): > 100 µM
- TGI (RPMI-8226 leukemia): > 100 µM
- TGI (SNB-19 CNS): > 100 µM

SMILES: COc1ccc2c(c1)[n+](=O)c(C(=O)C/C(=N/OCCCc1ccccc1)C(=O)NC13CC4CC(CC(C4)C1)C3)c(C)n2[O-]
- TGI (A498 renal): > 100 µM
- TGI (CAKI-1 renal): > 100 µM
- TGI (K-562 leukemia): > 100 µM
- TGI (KM12 colon): > 100 µM
- TGI (RPMI-8226 leukemia): > 100 µM
- TGI (SNB-19 CNS): > 100 µM

SMILES: CC1(C)OC2=C(CC1Br)C(=O)C(=O)c1ccccc12 (stereo unspecified)
- GI50 (A498 renal): 1.43 µM
- TGI (A498 renal): 3.07 µM
- GI50 (CAKI-1 renal): 1.66 µM
- TGI (CAKI-1 renal): 3.15 µM
- GI50 (DU-145 prostate): 1.67 µM
- TGI (DU-145 prostate): 3.05 µM
- GI50 (K-562 leukemia): 2.23 µM
- TGI (K-562 leukemia): 4.89 µM
- GI50 (KM12 colon): 1.75 µM
- TGI (KM12 colon): 3.19 µM
- GI50 (RPMI-8226 leukemia): 2.65 µM
- TGI (RPMI-8226 leukemia): 6.82 µM
- GI50 (RXF 393 renal): 1.9 µM
- TGI (RXF 393 renal): 3.33 µM

SMILES: Cc1cc(-c2cnn3c(NCC4CC(C)(O)C4)cc(Oc4cccnc4)nc23)ccc1C(=O)NC1CC1 (stereo unspecified)
- GI50 (A498 renal): 0.435 µM
- TGI (A498 renal): > 100 µM
- GI50 (CAKI-1 renal): 1.38 µM
- TGI (CAKI-1 renal): > 100 µM
- GI50 (DU-145 prostate): 2.26 µM
- TGI (DU-145 prostate): > 100 µM
- GI50 (K-562 leukemia): > 100 µM
- TGI (K-562 leukemia): > 100 µM
- GI50 (RXF 393 renal): 1.55 µM
- TGI (RXF 393 renal): > 100 µM
- GI50 (SNB-19 CNS): > 60.7 µM
- TGI (SNB-19 CNS): > 100 µM

SMILES: O=C(O)/C=C(\c1nc2ccc([N+](=O)[O-])cc2[nH]1)c1cc(Cl)ccc1O
- GI50 (A498 renal): 2.46 µM
- TGI (A498 renal): 8.7 µM
- GI50 (DU-145 prostate): 4.12 µM
- TGI (DU-145 prostate): > 100 µM
- GI50 (K-562 leukemia): 2.8 µM
- TGI (K-562 leukemia): 16.6 µM
- GI50 (KM12 colon): 2.84 µM
- TGI (KM12 colon): 17.7 µM
- GI50 (RPMI-8226 leukemia): 1.45 µM
- TGI (RPMI-8226 leukemia): 37.7 µM
- GI50 (RXF 393 renal): 3.55 µM
- TGI (RXF 393 renal): 21.2 µM
- GI50 (SNB-19 CNS): 3.5 µM
- TGI (SNB-19 CNS): > 100 µM

SMILES: Cn1c2ccccc2c2ccc3c(c21)C(=O)c1ccccc1C3=O
- TGI (CAKI-1 renal): 67 µM
- TGI (DU-145 prostate): > 100 µM
- TGI (K-562 leukemia): 32.2 µM
- TGI (KM12 colon): > 100 µM
- TGI (RPMI-8226 leukemia): 36.1 µM
- TGI (RXF 393 renal): 32 µM
- TGI (SNB-19 CNS): > 100 µM

SMILES: CC(C)(CO)N1CCN(C(=S)Nc2ccccc2)CC1
- TGI (A498 renal): > 100 µM
- TGI (CAKI-1 renal): > 100 µM
- TGI (K-562 leukemia): 99.5 µM
- TGI (KM12 colon): > 100 µM
- TGI (RPMI-8226 leukemia): > 100 µM
- TGI (RXF 393 renal): > 100 µM
- TGI (SNB-19 CNS): > 100 µM

SMILES: Nc1cccc(S(=O)(=O)NCC(=O)O)c1
- TGI (CAKI-1 renal): > 100 µM
- TGI (K-562 leukemia): > 100 µM
- TGI (KM12 colon): > 100 µM
- TGI (RPMI-8226 leukemia): > 100 µM
- TGI (RXF 393 renal): > 100 µM
- TGI (SNB-19 CNS): > 100 µM
